In ChEMBL document CHEMBL3046921, “Synthesis of 3,5-disubstituted isoxazolines as protein tyrosine phosphatase 1B inhibitors” (Med Chem Res, 2008):
pIC50, pKi: −log10 of the molar value.

Assays:
[1] = biological target: T1, Tyrosine-protein phosphatase non-receptor type 1 (Homo sapiens, UniProt P18031); test: Inhibition of PTP1B (unknown origin) using p-nitrophenylphosphate as substrate after 10 min
T1 sequence (P18031 whole entry): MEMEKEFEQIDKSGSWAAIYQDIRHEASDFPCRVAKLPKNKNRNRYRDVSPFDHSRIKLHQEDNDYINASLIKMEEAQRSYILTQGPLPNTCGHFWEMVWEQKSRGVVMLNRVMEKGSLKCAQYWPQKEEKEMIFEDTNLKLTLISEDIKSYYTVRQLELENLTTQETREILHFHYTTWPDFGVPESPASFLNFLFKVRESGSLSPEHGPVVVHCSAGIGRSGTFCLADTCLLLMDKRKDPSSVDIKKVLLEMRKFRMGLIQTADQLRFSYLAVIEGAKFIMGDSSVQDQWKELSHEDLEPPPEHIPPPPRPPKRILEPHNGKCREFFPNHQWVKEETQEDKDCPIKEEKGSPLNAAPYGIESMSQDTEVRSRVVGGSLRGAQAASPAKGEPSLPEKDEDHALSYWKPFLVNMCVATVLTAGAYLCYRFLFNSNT

[2] = system: Rattus norvegicus; test: Antidiabetic activity in albino Rattus norvegicus Sprague-Dawley (rat) streptozotocin-induced diabetic model assessed as reduction of blood glucose level at 100 mg/kg, po after 24 hr; assay type: functional; parameters: scale not given: the % may be the effect or the level left
[3] = system: Rattus norvegicus; test: Antidiabetic activity in albino Rattus norvegicus Sprague-Dawley (rat) streptozotocin-induced diabetic model assessed as reduction of blood glucose level at 100 mg/kg, po after 5 hr; assay type: functional; parameters: scale not given: the % may be the effect or the level left
[4] = biological target: T2, Tyrosine-protein phosphatase non-receptor type 1 (Homo sapiens) (UniProt P18031); test: (§1) Inhibition of PTP1B (unknown origin) using p-nitrophenylphosphate as substrate at 100 uM after 10 min
T2 sequence (whole entry): T1 sequence (P18031 whole entry)

[5] = biological target: Tyrosine-protein phosphatase non-receptor type 1 (Homo sapiens) (UniProt P18031); test: as §1; remark: listed apart in the source

pIC50 [1] | pKi [1] | inhibition [4] | inhibition [5] | Compound | Activity [2] | Activity [3]
3.78 | 3.87 | 46.5% |  | COC(=O)C1C(c2ccc(OC)cc2OC)=NOC1c1ccccc1 (stereo unspecified) | 7.74% | 21.6%
3.31 | 3.77 | 9.8% |  | COc1ccc(C2=NOC(c3ccccn3)C2)c(OC)c1 (stereo unspecified) |  | 
 |  | 64.2% |  | COc1c(C2=NOC(c3ccccc3)C2)ccc2c1C=CC(C)(C)O2 (stereo unspecified) |  | 
4.12 |  | 80.4% |  | COc1c(C2=NOC(c3ccccc3)C2)ccc2occc12 (stereo unspecified) |  | 
4.16 | 4.32 | 88.5% |  | COc1ccc(C2=NOC(c3ccccc3)C2)c(OC)c1 (stereo unspecified) | 19.7% | 18%
4.06 | 4.17 |  |  | SODIUM HYDROXYTRIOXIDOVANADIUM |  | 
 |  | 29.5% |  | Oc1ccc(C2=NOC(c3ccccc3)C2)c(O)c1 (stereo unspecified) |  | 
4.17 | 4.32 | 65.8% |  | COc1ccc(C2CC(c3ccc(OC)cc3OC)=NO2)cc1 (stereo unspecified) | 12.2% | 2.56%
 |  | 57.7% |  | COc1ccc(C2CC(c3ccc4c(c3OC)C=CC(C)(C)O4)=NO2)cc1 (stereo unspecified) |  | 
 |  |  | 56.2% | SODIUM [sequence] |  | 
 |  | 28.8% |  | COc1ccc(C2=NOC(c3ccccc3)C2)c(OC(C)=O)c1 (stereo unspecified) | 6.96% | 20.5%
 |  | 62.4% |  | COc1c(C2=NOC(c3ccccn3)C2)ccc2c1C=CC(C)(C)O2 (stereo unspecified) |  | 
 |  |  |  | CN(C)C(=N)NC(=N)N [METFORMIN] | 26.5% | 23.6%
 |  | 91.6% |  | CC(=O)Oc1ccc(C2=NOC(c3ccccc3)C2)c(OC(C)=O)c1 (stereo unspecified) | 15% | 23%
 |  | 47.1% |  | COc1ccc(C2=NOC(c3ccccc3)C2)c(O)c1 (stereo unspecified) |  | 
3.56 | 3.82 | 11.5% |  | COc1ccc(C2=NOC(c3ccncc3)C2)c(OC)c1 (stereo unspecified) |  | 
4.09 |  | 79.6% |  | COc1ccc(C2CC(c3ccc4occc4c3OC)=NO2)cc1 (stereo unspecified) |  | 
4.06 | 4.20 | 79.8% |  | COc1ccc(C2=NOC(n3ccnc3)C2)c(OC)c1 (stereo unspecified) | 15% | 22.3%
